Data on five compounds can be found in US7560470B2, “Heterocyclyl-3-sulfonylindazoles as 5-hydroxytryptamine-6 ligands” (Wyeth, priority 2003, dated 2009).

A value given as a limit tells only on which side of the number the result lay.

For orientation: Ki means a measure of affinity in units of concentration, obtained from inhibition or displacement. In general, melting point refers to the temperature, or range, at which the solid turns liquid.

Series [1] deals with T1, human cloned 5-HT6 receptors (Homo sapiens, UniProt P50406).
T1 construct: expressed in transfected cells; host or cells: HeLa cells (membrane preparation)
In words: 5-HT6 binding affinity, [3H]-LSD displacement on membranes of Hela cells expressing human cloned 5-HT6 receptors. The settings on record: [3H]-LSD 3.0 nM, Hela cell membranes, 120 min at room temperature; read-out: 5-HT6 Binding Ki. The protocol: The affinity of test compounds for the serotonin 5-HT6 receptor is evaluated in the following manner. Cultured Hela cells expressing human cloned 5-HT6 receptors are harvested and centrifuged at low speed (1,000×g) for 10.0 min to remove the culture media. The harvested cells are suspended in half volume of fresh physiological phosphate buffered saline solution and recentrifuged at the same speed. This operation is repeated. The collected cells are then homogenized in ten volumes of 50 mM Tris.HCl (pH 7.4) and 0.5 mM EDTA. The homogenate is centrifuged at 40,000×g for 30.0 min and the precipitate is collected. The obtained pellet is resuspended in 10 volumes of Tris.HCl buffer and recentrifuged at the same speed. The final pellet is suspended in a small volume of Tris.HCl buffer and the tissue protein content is determined in aliquots of 10-25 μl volumes. Bovine Serum Albumin is used as the standard in the protein determination according to the method described in Lowry et al., J. Biol. Chem., 193:265 (1951). The volume of the suspended cell membranes is adjusted to give a tissue protein concentration of 1.0 mg/ml of suspension. The prepared membrane suspension (10 times concentrated) is aliquoted in 1.0 ml volumes and stored at −70° C. until used in subsequent binding experiments.
Binding experiments are performed in a 96 well microtiter plate format, in a total volume of 200 μl. […] The test compounds are added in 20.0 μl volume.
The reaction is allowed to proceed in the dark for 120 min at room temperature, at which time, the bound ligand-receptor complex is filtered off on a 96 well unifilter with a Packard Filtermate® 196 Harvester. The bound complex caught on the filter disk is allowed to air dry and the radioactivity is measured in a Packard TopCount® equipped with six photomultiplier detectors, after the addition of 40.0 μl Microscint®−20 scintillant to each shallow well. The unifilter plate is heat-sealed and counted in a PackardTopCount® with a tritium efficiency of 31.0%.
Binding in the presence of varying concentrations of test compound is expressed as a percentage of specific binding in the absence of test compound. The results are plotted as log % bound versus log concentration of test compound. Nonlinear regression analysis of data points with a computer assisted program Prisms® yields both the IC50 and the Ki values of test compounds with 95% confidence limits.
The amount of displacement by the test compound is given in percent (%) inhibition and is derived from the following equation:
[formula] where B0 is the amount of CPM bound in the presence of the testing agent. NSB represents the CPM bound in the presence of a saturating concentration of a displacer and TB represents the total amount of CPM bound at zero (0) concentration of test compound.
Alternatively, a linear regression line of data points is plotted, from which the IC50 value is determined and the Ki value is determined based upon the following equation: Ki=IC50/(1+L/KD) where L is the concentration of the radioactive ligand used and KD is the dissociation constant of the ligand for the receptor, both expressed in nM.

T1 sequence (P50406 whole entry): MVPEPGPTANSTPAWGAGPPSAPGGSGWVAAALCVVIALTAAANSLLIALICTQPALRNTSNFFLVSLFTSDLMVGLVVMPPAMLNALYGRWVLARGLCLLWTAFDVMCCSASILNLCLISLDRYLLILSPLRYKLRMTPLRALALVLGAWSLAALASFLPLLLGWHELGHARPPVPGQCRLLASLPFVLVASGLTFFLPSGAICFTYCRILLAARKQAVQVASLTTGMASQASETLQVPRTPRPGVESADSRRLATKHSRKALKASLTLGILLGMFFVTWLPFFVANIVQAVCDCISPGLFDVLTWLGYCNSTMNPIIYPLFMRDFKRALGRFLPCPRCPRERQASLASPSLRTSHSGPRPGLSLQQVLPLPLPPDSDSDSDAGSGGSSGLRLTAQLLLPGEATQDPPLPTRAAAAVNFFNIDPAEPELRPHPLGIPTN

As for `O=S(=O)(c1ccccc1)c1nn(-c2ccc(F)cc2)c2ccc(N3CCNCC3)cc12` [Example 37], the melting point was in the range of 159 to 161 °C. In addition, the Ki in series [1] is 4 nM.
Turning to `O=S(=O)(c1ccccc1)c1nn(-c2ccc(F)c(Cl)c2)c2ccc(N3CCNCC3)cc12` [Example 38], the melting point was above 200 °C. Further, in series [1], the Ki stood at 73 nM.
With `O=S(=O)(c1ccccc1)c1nn(-c2cccc(C(F)(F)F)c2)c2ccc(N3CCNCC3)cc12` [Example 40], the melting point lay within 139 to 142 °C. Besides, in series [1], the Ki worked out at 62 nM.
Regarding `O=S(=O)(c1ccccc1)c1nn(-c2ccc(I)cc2)c2ccc(N3CCNCC3)cc12` [Example 42], the melting point is above 200 °C. In series [1], the Ki stood at 117 nM.
For `CCn1nc(S(=O)(=O)c2ccccc2)c2cc(N3CCNCC3)ccc21` [Example 43], in that order: above 200 °C and 3 nM.
